Here are results for 30 compounds from patent publication US10508104B2, “6-hydroxy-5-(phenyl/heteroarylsulfonyl)pyrimidin-4(1H)-one as APJ agonists” (Bristol-Myers Squibb Company, priority 2016, dated 2019).

The term EC50 denotes the midpoint of the concentration-response curve.

Sequence of human APJ receptor (P35414 whole entry): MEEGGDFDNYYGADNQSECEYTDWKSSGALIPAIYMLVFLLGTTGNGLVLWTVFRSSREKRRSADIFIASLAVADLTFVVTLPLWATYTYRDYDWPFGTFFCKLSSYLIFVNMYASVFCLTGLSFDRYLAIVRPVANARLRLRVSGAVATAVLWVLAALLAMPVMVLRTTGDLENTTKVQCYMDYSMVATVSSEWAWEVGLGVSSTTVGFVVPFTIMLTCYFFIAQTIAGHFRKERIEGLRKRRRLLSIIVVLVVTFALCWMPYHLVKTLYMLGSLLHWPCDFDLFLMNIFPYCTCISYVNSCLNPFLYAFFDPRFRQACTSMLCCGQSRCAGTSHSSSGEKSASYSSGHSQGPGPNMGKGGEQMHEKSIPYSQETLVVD

The first test deals with human APJ receptor (Homo sapiens (Human), UniProt P35414). Put plainly: Intracellular cAMP accumulation assay (APJ hcAMP, HTRF). The test is classed as cell-based. Particulars: HEK293 cells stably expressing human APJ receptor; inhibition of forskolin-mediated cAMP production; read-out: Human APJ cAMP EC50 Potency range. In outline:
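HEK293 cells stably expressing human APJ, 5,000 per well, incubated 30 min at rt with compound, […] and 2 μM forskolin. cAMP measured by HTRF against a cAMP standard curve as inhibition of forskolin-driven production. EC50 from variable-slope sigmoidal fit.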
Take `CCCCc1nc(=O)c(S(=O)(=O)c2ccc(-c3nccn3C)cc2)c(O)n1-c1c(OC)cccc1OC` [Example 79, 2-Butyl-1-(2,6-dimethoxyphenyl)-6-hydroxy-5-((4-(1-methyl-1H-imidazol-2-yl)phenyl)sulfonyl)pyrimidin-4(1H)-one]: the EC50 was 0.01 to 10 nM. With `CCCCc1nc(=O)c(S(=O)(=O)c2ccc(C3CC3)cc2)c(O)n1-c1c(OC)cccc1OC` [Example 85, 2-Butyl-5-((4-cyclopropylphenyl)sulfonyl)-1-(2,6-dimethoxyphenyl)-6-hydroxypyrimidin-4(1H)-one], the EC50 is 0.01 to 10 nM.

For the compound `CCCCc1nc(=O)c(S(=O)(=O)c2ccc(C(=O)O)cc2)c(O)n1-c1c(OC)cccc1OC` [Example 89, 4-((2-Butyl-1-(2,6-dimethoxyphenyl)-6-hydroxy-4-oxo-1,4-dihydropyrimidin-5-yl)sulfonyl)benzoic Acid], the EC50 is 0.01 to 10 nM. On the same count and under the same terms, next, `CCCCc1nc(=O)c(S(=O)(=O)c2ccc(C(=O)NCC(F)(F)F)cc2)c(O)n1-c1c(OC)cccc1OC` [Example 90, 4-((2-Butyl-1-(2,6-dimethoxyphenyl)-6-hydroxy-4-oxo-1,4-dihydropyrimidin-5-yl)sulfonyl)-N-(2,2,2-trifluoroethyl)benzamide]: 0.01 to 10 nM. Turning to `CCCCc1nc(=O)c(S(=O)(=O)c2ccc(Br)cn2)c(O)n1-c1c(OC)cccc1OC` [Example 98, 5-((5-Bromopyridin-2-yl)sulfonyl)-2-butyl-1-(2,6-dimethoxyphenyl)-6-hydroxypyrimidin-4(1H)-one], the EC50 fell in the range of 0.01 to 10 nM. As to `CCCCc1nc(=O)c(S(=O)(=O)C2CCN(C(=O)OC(C)(C)C)CC2)c(O)n1-c1c(OC)cccc1OC` [Example 105, tert-Butyl 4-((2-butyl-1-(2,6-dimethoxyphenyl)-6-hydroxy-4-oxo-1,4-dihydropyrimidin-5-yl)sulfonyl)piperidine-1-carboxylate], the EC50 was 0.01 to 10 nM.

The same test, now with this note: human APJ, intracellular cAMP accumulation; read-out: Human APJ cAMP EC50 Potency range.
With `CCCCc1nc(=O)c(S(=O)(=O)c2ccc(-n3cc(C)ccc3=O)cc2)c(O)n1-c1c(OC)cccc1OC` [Example 76, 2-butyl-1-(2,6-dimethoxyphenyl)-6-hydroxy-5-[4-(5-methyl-2-oxo-1,2-dihydropyridin-1-yl)benzenesulfonyl]-1,4-dihydropyrimidin-4-one], the EC50 lay in the range of 0.01 to 10 nM.

As to `CCCCc1nc(=O)c(S(=O)(=O)c2ccc(-n3cc(Cl)ccc3=O)cc2)c(O)n1-c1c(CC)cccc1CC` [Example 77, 2-butyl-5-[4-(5-chloro-2-oxo-1,2-dihydropyridin-1-yl)benzenesulfonyl]-1-(2,6-diethylphenyl)-6-hydroxy-1,4-dihydropyrimidin-4-one], the EC50 fell in the range of 0.01 to 10 nM. `CCCCc1nc(=O)c(S(=O)(=O)c2ccc(-n3cc(C)ccc3=O)cc2)c(O)n1-c1c(CC)cccc1CC` [Example 78, 2-butyl-1-(2,6-diethylphenyl)-6-hydroxy-5-[4-(5-methyl-2-oxo-1,2-dihydropyridin-1-yl)benzenesulfonyl]-1,4-dihydropyrimidin-4-one]: the EC50 lay within 0.01 to 10 nM. Turning to `CCCCc1nc(=O)c(S(=O)(=O)c2ccc(-c3ncn(C)n3)cc2)c(O)n1-c1c(OC)cccc1OC` [Example 80, 2-butyl-1-(2,6-dimethoxyphenyl)-6-hydroxy-5-[4-(1-methyl-1H-1,2,4-triazol-3-yl)benzenesulfonyl]-1,4-dihydropyrimidin-4-one], the EC50 lay in the range of 0.01 to 10 nM. For `CCCCc1nc(=O)c(S(=O)(=O)c2ccc(-c3cccs3)cc2)c(O)n1-c1c(OC)cccc1OC` [Example 81, 2-butyl-1-(2,6-dimethoxyphenyl)-6-hydroxy-5-[4-(thiophen-2-yl)benzenesulfonyl]-1,4-dihydropyrimidin-4-one], the EC50 was 0.01 to 10 nM. For `CCCCc1nc(=O)c(S(=O)(=O)c2ccc(-c3c(C)nnn3C)cc2)c(O)n1-c1c(OC)cccc1OC` [Example 82, 2-butyl-1-(2,6-dimethoxyphenyl)-5-[4-(dimethyl-1H-1,2,3-triazol-5-yl)benzenesulfonyl]-6-hydroxy-1,4-dihydropyrimidin-4-one], the EC50 was 0.01 to 10 nM. Regarding `CCCCc1nc(=O)c(S(=O)(=O)c2ccc(-c3nc(C(=O)OCC)co3)cc2)c(O)n1-c1c(OC)cccc1OC` [Example 83, ethyl 2-(4-{[2-butyl-1-(2,6-dimethoxyphenyl)-6-hydroxy-4-oxo-1,4-dihydropyrimidin-5-yl]sulfonyl}phenyl)-1,3-oxazole-4-carboxylate], the EC50 is 0.01 to 10 nM. The same measure, in the same setting: to `CCCCc1nc(=O)c(S(=O)(=O)c2ccc(-c3nc(C(=O)OC)c(C)s3)cc2)c(O)n1-c1c(OC)cccc1OC` [Example 84, methyl 2-(4-{[2-butyl-1-(2,6-dimethoxyphenyl)-6-hydroxy-4-oxo-1,4-dihydropyrimidin-5-yl]sulfonyl}phenyl)-5-methyl-1,3-thiazole-4-carboxylate] belongs 0.01 to 10 nM; to `COc1cccc(OC)c1-n1c(C2CCCC2)nc(=O)c(S(=O)(=O)c2ccc(C3CC3)cc2)c1O` [Example 86, 2-cyclopentyl-5-(4-cyclopropylbenzene-sulfonyl)-1-(2,6-dimethoxyphenyl)-6-hydroxy-1,4-dihydropyrimidin-4-one], 0.01 to 10 nM. As to `CCCCc1nc(=O)c(S(=O)(=O)c2ccc(C3CC3)cc2)c(O)n1-c1c(CC)cccc1CC` [Example 87, 2-butyl-5-(4-cyclopropylbenzene-sulfonyl)-1-(2,6-diethylphenyl)-6-hydroxy-1,4-dihydropyrimidin-4-one], the EC50 lay within 0.01 to 10 nM. Turning to `CCOCc1nc(=O)c(S(=O)(=O)c2ccc(C3CC3)cc2)c(O)n1-c1c(CC)cccc1CC` [Example 88, 5-(4-cyclopropylbenzene-sulfonyl)-1-(2,6-diethylphenyl)-2-(ethoxymethyl)-6-hydroxy-1,4-dihydropyrimidin-4-one], the EC50 is 0.01 to 10 nM. As to `CCCCc1nc(=O)c(S(=O)(=O)c2ccc(C(=O)NC3CC3)cc2)c(O)n1-c1c(OC)cccc1OC` [Example 91, 4-{[2-butyl-1-(2,6-dimethoxyphenyl)-6-hydroxy-4-oxo-1,4-dihydropyrimidin-5-yl]suffonyl}-N-cyclopropylbenzamide], the EC50 lay within 0.01 to 10 nM. As for `CCCCc1nc(=O)c(S(=O)(=O)c2ccc(C(=O)NC)cc2)c(O)n1-c1c(OC)cccc1OC` [Example 92, 4-{[2-butyl-1-(2,6-dimethoxyphenyl)-6-hydroxy-4-oxo-1,4-dihydropyrimidin-5-yl]sulfonyl}-N-methylbenzamide], the EC50 was in the range of 0.01 to 10 nM. Same read-out and setting: next, `CCCCc1nc(=O)c(S(=O)(=O)c2ccc(C(=O)N3CC(F)(F)C3)cc2)c(O)n1-c1c(OC)cccc1OC` [Example 93, 2-butyl-5-[4-(3,3-difluoroazetidine-1-carbonyl)benzenesulfo-nyl]-1-(2,6-dimethoxyphenyl)-6-hydroxy-1,4-dihydropyrimidin-4-one]: 0.01 to 10 nM. Still for that read-out and setting: next, `CCCCc1nc(=O)c(S(=O)(=O)c2ccc(C(=O)N3CC(C)(O)C3)cc2)c(O)n1-c1c(OC)cccc1OC` [Example 94, 2-butyl-1-(2,6-dimethoxyphenyl)-6-hydroxy-5-[4-(3-hydroxy-3-methylazetidine-1-carbonyl)benzenesulfo-nyl]-1,4-dihydropyrimidin-4-one]: 0.01 to 10 nM; `CCCCc1nc(=O)c(S(=O)(=O)c2ccc(C(=O)N3CCC(F)(F)C3)cc2)c(O)n1-c1c(OC)cccc1OC` [Example 95, 2-butyl-5-[4-(3,3-difluoropyrrolidine-1-carbonyl)benzene-sulfonyl]-1-(2,6-dimethoxyphenyl)-6-hydroxy-1,4-dihydropyrimidin-4-one]: 0.01 to 10 nM. On the same count and under the same terms, to `CCCCc1nc(=O)c(S(=O)(=O)c2ccc(C(=O)N3CCOCC3)cc2)c(O)n1-c1c(OC)cccc1OC` [Example 96, 2-butyl-1-(2,6-dimethoxyphenyl)-6-hydroxy-5-[4-(morpholine-4-carbonyl)benzenesulfo-nyl]-1,4-dihydropyrimidin-4-one] belongs 0.01 to 10 nM; to `CCCCc1nc(=O)c(S(=O)(=O)c2ccc(C(=O)Nc3ccc(F)nc3)cc2)c(O)n1-c1c(OC)cccc1OC` [Example 97, 4-{[2-butyl-1-(2,6-dimethoxyphenyl)-6-hydroxy-4-oxo-1,4-dihydropyrimidin-5-yl]sulfonyl}-N-(6-fluoropyridin-3-yl)benzamide], 10 to 100 nM.

Turning to `COc1cccc(OC)c1-n1c(CCC(C)C)nc(=O)c(S(=O)(=O)c2ccccn2)c1O` [Example 99, 1-(2,6-dimethoxyphenyl)-6-hydroxy-2-(3-methylbutyl)-5-(pyridine-2-sulfonyl)-1,4-dihydropyrimidin-4-one], the 50% effective concentration (EC50) lay within 0.01 to 10 nM. As to `CCCCc1nc(=O)c(S(=O)(=O)c2cc(C)oc2C)c(O)n1-c1c(OC)cccc1OC` [Example 100, 2-butyl-1-(2,6-dimethoxyphenyl)-5-[(2,5-dimethylfuran-3-yl)sulfonyl]-6-hydroxy-1,4-dihydropyrimidin-4-one], the EC50 was 0.01 to 10 nM. In the case of `CCCCc1nc(=O)c(S(=O)(=O)c2ccc(C3CC3)cn2)c(O)n1-c1c(OC)cccc1OC` [Example 101, 2-butyl-5-[(5-cyclopropylpyridin-2-yl)sulfonyl]-1-(2,6-dimethoxyphenyl)-6-hydroxy-1,4-dihydropyrimidin-4-one], the EC50 fell in the range of 0.01 to 10 nM.

Regarding `CCCCc1nc(=O)c(S(=O)(=O)c2ccc(C3CC3)cn2)c(O)n1-c1c(CC)cccc1CC` [Example 102, 2-butyl-5-[(5-cyclopropylpyridin-2-yl)sulfonyl]-1-(2,6-diethylphenyl)-6-hydroxy-1,4-dihydropyrimidin-4-one], the EC50 was in the range of 0.01 to 10 nM. `CCCCc1nc(=O)c(S(=O)(=O)c2ccc(-c3ccc(F)cc3)cn2)c(O)n1-c1c(OC)cccc1OC` [Example 103, 2-butyl-1-(2,6-dimethoxyphenyl)-5-{[5-(4-fluorophenyl)pyridin-2-yl]sulfonyl}-6-hydroxy-1,4-dihydropyrimidin-4-one]: the EC50 was in the range of 0.01 to 10 nM. On to `CCCCc1nc(=O)c(S(=O)(=O)c2ccc(C)cn2)c(O)n1-c1c(CC)cccc1CC` [Example 104, 2-butyl-1-(2,6-diethylphenyl)-6-hydroxy-5-[(5-methylpyridin-2-yl)sulfonyl]-1,4-dihydropyrimidin-4-one], for which the EC50 was 0.01 to 10 nM.
